Patent US20240343694A1, “PYRIMIDINE DERIVATIVE, METHOD FOR PREPARING SAME, AND PHARMACEUTICAL COMPOSITION FOR PREVENTING OR TREATING CANCER COMPRISING SAME AS ACTIVE INGREDIENT” (KOREA RESERARCH INSTITUTE OF CHEMICAL TECHNOLOGY, priority 2021, published 2024)

What was measured:
[1] = biological target: EGFR del19 (Homo sapiens (Human), UniProt P00533, DEL746-750); experiment: HTRF inhibitory activity against EGFR mutant enzyme (EGFR del19); assay type: biochemical; conditions: recombinant enzyme, 37° C. for 2 hours
In short: (§1)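 Recombinant EGFR del19 or A763_Y764insFHEA was premixed with compound in 50 mM Tris pH 7.5 with 7.5 mM MgCl2 and 1 mM DTT. ATP (50 mM as printed) and biotin-peptide (0.5 mM) were added and reacted 2 h at 37 °C. The HTRF 665/615 read used streptavidin-XL665 and Eu anti-phosphotyrosine. IC50 was fitted from 7 concentrations.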

[2] = biological target: EGFR A763_Y764insFHEA (Homo sapiens (Human), UniProt P00533, INS763FHEA); experiment: HTRF inhibitory activity against EGFR mutant enzyme (EGFR A763_Y764insFHEA); assay type: biochemical; conditions: recombinant enzyme, 37° C. for 2 hours
In short: as §1

[3] = biological target: HER2 A775_G776insYVMA (Homo sapiens (Human), UniProt P04626, INS775YVMA); experiment: HTRF inhibitory activity against HER2 mutant enzyme; assay type: biochemical; conditions: recombinant enzyme, 37° C. for 2 hours
In short: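 Recombinant HER2 A775_G776insYVMA preincubated with compound, then […] and biotinylated peptide ([…]) added; 2 h at 37 °C in Tris-HCl pH 7.5 buffer with MgCl2, DTT. HTRF detection (Eu anti-phosphotyrosine/streptavidin-XL665); IC50 from 7 concentrations.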

[4] = tested on: Ba/F3 EGFR D770_N771insSVD; experiment: Growth inhibition of Ba/F3 EGFR mutant cells (CellTiter-Glo); assay type: cell-based; conditions: Ba/F3 EGFR-D770-N771ins_SVD, 72 hours
In short: (§2)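 Ba/F3 cells expressing either EGFR insertion mutant were seeded at 1,000 cells/well and dosed 24 h later at eight concentrations from 0 to 10 μM. After 72 h, viability was read by CellTiter-Glo ATP signal. IC50 (μM) was fitted from the eight-point curves.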

[5] = tested on: Ba/F3 EGFR V769_D770insASV; experiment: as above; assay type: cell-based; conditions: 72 hours
In short: as §2

[6] = tested on: Ba/F3 HER2 A775_G776insYVMA; experiment: Growth inhibition of Ba/F3 HER2 mutant cells (CellTiter-Glo); assay type: cell-based; conditions: Mus musculus, BaF3, 72 hours
In short: (§3)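 Ba/F3 cells carrying HER2 A775_G776insYVMA or G776delinsVC were seeded at 1,000 cells/well and dosed 24 h later at 0.01-10 μM (8 concentrations including 0). After 72 h, viability was read as cellular ATP by CellTiter-Glo luminescence, and IC50 values were calculated from the 8-point curves.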

[7] = tested on: Ba/F3 HER2 G776delinsVC; experiment: as above; assay type: cell-based; conditions: Mus musculus, BaF3, 72 hours
In short: as §3

Sequence of EGFR A763_Y764insFHEA (P00533 other isoform, or with tags, fused parts or gaps del 1-694/ins FHEA behind 763 limits assumed): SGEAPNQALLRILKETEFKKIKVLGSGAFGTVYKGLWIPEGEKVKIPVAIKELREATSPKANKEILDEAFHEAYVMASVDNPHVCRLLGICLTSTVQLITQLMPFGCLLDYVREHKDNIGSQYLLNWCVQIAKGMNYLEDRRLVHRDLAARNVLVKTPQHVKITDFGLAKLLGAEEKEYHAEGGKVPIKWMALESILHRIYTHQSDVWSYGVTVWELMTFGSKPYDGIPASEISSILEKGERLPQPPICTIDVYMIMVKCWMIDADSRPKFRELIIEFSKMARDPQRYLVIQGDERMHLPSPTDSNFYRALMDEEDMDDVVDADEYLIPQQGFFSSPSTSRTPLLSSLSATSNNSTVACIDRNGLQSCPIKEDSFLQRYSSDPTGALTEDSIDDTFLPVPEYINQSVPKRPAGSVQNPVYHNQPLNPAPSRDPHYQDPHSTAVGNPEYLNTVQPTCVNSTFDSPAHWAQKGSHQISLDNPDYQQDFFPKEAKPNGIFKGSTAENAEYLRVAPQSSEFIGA
Sequence of HER2 A775_G776insYVMA (P04626 other isoform, or with tags, fused parts or gaps del 1-675/ins YVMA behind 775 limits assumed): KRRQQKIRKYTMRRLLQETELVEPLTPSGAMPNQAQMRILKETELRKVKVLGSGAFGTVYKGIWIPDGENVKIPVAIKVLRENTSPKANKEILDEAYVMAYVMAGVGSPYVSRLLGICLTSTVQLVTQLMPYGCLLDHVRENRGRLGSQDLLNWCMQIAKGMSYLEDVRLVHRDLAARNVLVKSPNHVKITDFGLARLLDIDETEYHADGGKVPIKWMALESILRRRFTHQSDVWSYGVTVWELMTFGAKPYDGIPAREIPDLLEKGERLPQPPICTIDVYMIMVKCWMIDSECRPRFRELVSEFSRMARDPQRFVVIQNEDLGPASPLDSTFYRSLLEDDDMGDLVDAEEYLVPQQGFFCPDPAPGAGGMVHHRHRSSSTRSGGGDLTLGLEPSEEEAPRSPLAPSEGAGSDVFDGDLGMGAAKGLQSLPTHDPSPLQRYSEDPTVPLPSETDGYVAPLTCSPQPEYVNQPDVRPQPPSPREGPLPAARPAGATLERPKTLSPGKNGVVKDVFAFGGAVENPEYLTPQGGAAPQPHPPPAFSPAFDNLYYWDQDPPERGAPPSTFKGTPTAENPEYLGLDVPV
Sequence of EGFR del19 (P00533 other isoform, or with tags, fused parts or gaps del 1-668/del 746-750 limits assumed): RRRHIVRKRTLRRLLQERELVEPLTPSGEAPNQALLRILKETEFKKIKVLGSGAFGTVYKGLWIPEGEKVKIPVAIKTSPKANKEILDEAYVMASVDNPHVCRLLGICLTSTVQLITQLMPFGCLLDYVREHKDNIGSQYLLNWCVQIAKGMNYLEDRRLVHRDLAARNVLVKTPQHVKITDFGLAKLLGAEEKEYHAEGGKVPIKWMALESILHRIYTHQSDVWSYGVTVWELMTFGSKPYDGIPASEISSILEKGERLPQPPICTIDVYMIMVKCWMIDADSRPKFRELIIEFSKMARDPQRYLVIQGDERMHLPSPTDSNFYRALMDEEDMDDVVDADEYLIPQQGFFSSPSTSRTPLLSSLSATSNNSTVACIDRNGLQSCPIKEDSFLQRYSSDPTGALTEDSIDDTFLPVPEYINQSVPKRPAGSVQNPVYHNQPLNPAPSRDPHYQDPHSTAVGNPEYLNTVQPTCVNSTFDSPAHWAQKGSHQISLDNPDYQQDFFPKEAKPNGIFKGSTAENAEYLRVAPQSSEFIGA

SMILES | IC50 [1] | IC50 [2] | IC50 [3] | IC50 [4] | IC50 [5] | IC50 [6] | IC50 [7]
C=CC(=O)Nc1cc(Nc2ncc(Cl)c(Nc3ccc(C)c(C)c3N(C)C(C)=O)n2)c(OC)cc1N(C)CCN(C)C [Example 83, N-(5-((5-chloro-4-((3,4-dimethyl-2-(N-methylacetamido)phenyl)amino)pyrimidin-2-yl)amino)-2-((2-(dimethylamino)ethyl)(methyl)amino)-4-methoxyphenyl)acrylamide] | 3 nM | 19 nM | 374 nM | 30 to 50 nM | 30 to 50 nM | > 100 nM | < 10 nM
C=CC(=O)Nc1cc(Nc2ncc(Cl)c(Nc3cccc4c3N(S(C)(=O)=O)CC4)n2)c(OC)cc1N1CCC(N(C)C)CC1 [Example 58, N-(5-((5-chloro-4-((1-(methylsulfonyl)indolin-7-yl)amino)pyrimidin-2-yl)amino)-2-(4-(dimethylamino)piperidin-1-yl)-4-methoxyphenyl)acrylamide] | < 1 nM | 10 nM | 90 nM | 50 to 100 nM | 50 to 100 nM | 50 to 100 nM | < 10 nM
CC#CC(=O)Nc1cc(Nc2ncc(Cl)c(Nc3ccc(C)cc3N(C)S(C)(=O)=O)n2)c(OC)cc1N(C)CCN(C)C [Example 98, N-(5-((5-chloro-4-((4-methyl-2-(N-methylmethylsulfonamido)phenyl)amino)pyrimidin-2-yl)amino)-2-((2-(dimethylamino)ethyl)(methyl)amino)-4-methoxyphenyl) but-2-inamide] | < 1 nM | 9 nM | 53 nM | 10 to 30 nM | 10 to 30 nM | > 100 nM | < 10 nM
C=CC(=O)Nc1cc(Nc2ncc(Cl)c(Nc3ccccc3N(C)S(C)(=O)=O)n2)c(OC)cc1N(C)CCN(C)C [Example 29, N-(5-((5-chloro-4-((2-(N-methylmethylsulfonamido)phenyl)amino)pyrimidin-2-yl)amino)-2-((2-(dimethylamino)ethyl)(methyl)amino)-4-methoxyphenyl)acrylamide] | < 1 nM | < 1 nM | 5 nM | 10 to 30 nM | 10 to 30 nM | 50 to 100 nM | 10 to 30 nM
C=CC(=O)Nc1cc(Nc2ncc(Cl)c(Nc3ccccc3N(CC)S(C)(=O)=O)n2)c(OC)cc1N(C)CCN(C)C [Example 31, N-(5-((5-chloro-4-((2-(N-ethylmethylsulfonamido)phenyl)amino)pyrimidin-2-yl)amino)-2-((2-(dimethylamino)ethyl)(methyl)amino)-4-methoxyphenyl)acrylamide] | < 1 nM | < 1 nM | 0.3 nM | 30 to 50 nM | < 10 nM | < 10 nM | < 10 nM
C=CC(=O)Nc1cc(Nc2ncc(Cl)c(Nc3cccc(C)c3N(C)C(C)=O)n2)c(OC)cc1N(C)CCN(C)C [Example 85, N-(5-((5-chloro-4-((3-methyl-2-(N-methylacetamido)phenyl)amino)pyrimidin-2-yl)amino)-2-((2-(dimethylamino)ethyl)(methyl)amino)-4-methoxyphenyl)acrylamide] | 18 nM | 43 nM | 871 nM | 30 to 50 nM | 30 to 50 nM | > 100 nM | 10 to 30 nM

Results, then the molecule that gave them:

IC50 [1] | IC50 [2] | IC50 [3] | IC50 [4] | IC50 [5] | IC50 [6] | IC50 [7] | SMILES
< 1 nM | < 1 nM | 20 nM | 50 to 100 nM | 50 to 100 nM | 50 to 100 nM | 50 to 100 nM | C=CC(=O)Nc1cc(Nc2ncc(Cl)c(Nc3cccc4c3N(S(C)(=O)=O)CC4)n2)c(OC)cc1N1CCC(N2CCN(C)CC2)CC1 [Example 59, N-(5-((5-chloro-4-((1-(methylsulfonyl)indolin-7-yl)amino)pyrimidin-2-yl)amino)-4-methoxy-2-(4-(4-methylpiperazin-1-yl)piperidin-1-yl)phenyl)acrylamide]
< 1 nM | < 1 nM | 6 nM | > 100 nM | > 100 nM | > 100 nM | > 100 nM | C=CC(=O)Nc1cc(Nc2ncc(Cl)c(Nc3ccccc3NS(C)(=O)=O)n2)c(OC)cc1N(C)CCNC [Example 25, N-(5-((5-chloro-4-((2-(methylsulfonamido)phenyl)amino)pyrimidin-2-yl)amino)-4-methoxy-2-(methyl(2-(methylamino)ethyl)amino)phenyl)acrylamide]
< 1 nM | 1 nM | 6 nM | < 10 nM | < 10 nM | < 10 nM | < 10 nM | C=CC(=O)Nc1cc(Nc2ncc(Cl)c(Nc3cccc4c3N(C(C)=O)CC4)n2)c(OC)cc1N(C)CCN(C)C [Example 91, N-(5-((4-((1-acetylindolin-7-yl)amino)-5-chloropyrimidin-2-yl)amino)-2-((2-(dimethylamino)ethyl)(methyl)amino)-4-methoxyphenyl)acrylamide]
< 1 nM | < 1 nM | 6 nM | < 10 nM | < 10 nM | < 10 nM | < 10 nM | C=CC(=O)Nc1cc(Nc2ncc(Cl)c(Nc3cccc4c3N(S(C)(=O)=O)CCC4)n2)c(OC)cc1N(C)CCN(C)C [Example 47, N-(5-((5-chloro-4-((1-(methylsulfonyl)-1,2,3,4-tetrahydroquinolin-8-yl)amino)pyrimidin-2-yl)amino)-2-((2-(dimethylamino)ethyl)(methyl)amino)-4-methoxyphenyl)acrylamide]
3 nM | 9 nM | 225 nM | 10 to 30 nM | 10 to 30 nM | > 100 nM | < 10 nM | C=CC(=O)Nc1cc(Nc2nccc(Nc3cccc4c3N(C(C)=O)CC4)n2)c(OC)cc1N(C)CCN(C)C [Example 100, N-(5-((4-((1-acetylindolin-7-yl)amino)pyrimidin-2-yl)amino)-2-((2-(dimethylamino)ethyl)(methyl)amino)-4-methoxyphenyl)acrylamide]
4 nM | 24 nM | 107 nM | 30 to 50 nM | 30 to 50 nM | > 100 nM | < 10 nM | C=CC(=O)Nc1cc(Nc2ncc(Cl)c(Nc3ccc(C)cc3N(C)C(C)=O)n2)c(OC)cc1N(C)CCN(C)C [Example 87, N-(5-((5-chloro-4-((4-methyl-2-(N-methylacetamido)phenyl)amino)pyrimidin-2-yl)amino)-2-((2-(dimethylamino)ethyl)(methyl)amino)-4-methoxyphenyl)acrylamide]
0.1 nM | 10 nM | 60 nM | 50 to 100 nM | 50 to 100 nM | 50 to 100 nM | < 10 nM | C=CC(=O)Nc1cc(Nc2ncc(Cl)c(Nc3cccc4c3N(S(C)(=O)=O)CCC4)n2)c(OC)cc1N1CCC(N(C)C)CC1 [Example 49, N-(5-((5-chloro-4-((1-(methylsulfonyl)-1,2,3,4-tetrahydroquinolin-8-yl)amino)pyrimidin-2-yl)amino)-2-(4-(dimethylamino)piperidin-1-yl)-4-methoxyphenyl)acrylamide]
